Experimental data reported in PubChem BioAssay AID1963856 (Molecular Pharmacology Branch, DTP, NCI, 2024).

Tested on: LG0567-F671-PDC KRAS tumor spheroid viability
Experiment: Anticancer human tumor LG0567-F671-PDC patient-derived lung adenocarcinoma cell line growth inhibition [KRAS2]
Settings: spheroids with HUVEC and MSC; for IC50: curve of first compound; for viability, T/C: stronger effect = lower value
Description: Multicellular complex tumor spheroid response to RAS pathway inhibitors in combination with a targeted agents in patient-derived cell lines with oncogenic KRAS variants from multiple cancer types
A high-throughput screen of multi-cell type tumor spheroids was designed to identify active combinations of targeted small molecules and KRAS pathway inhibitors. Complex spheroids include a stromal component modeled by human endothelial cells (HUVEC) and fibroblasts modeled by human mesenchymal stem cells (MSCs). The concentration ranges selected for each drug and investigational agent were based upon clinically achievable concentrations if the clinical Cmax of the agent was known.
Compounds. The drugs and investigational agents: BI-3406 (NSC825286), BAY-293 (NSC824723), batoprotafib (TNO155; NSC825523), sotorasib (AMG 510; NSC818433), MRTX1257 (NSC819558), elimusertib (BAY 1895344; NSC800525), molibresib (GSK525762; NSC774829), temuterkib (LY3214996; NSC803410), venetoclax (NSC766270), alisertib (NSC759677), olaparib (NSC753686), talazoparib (NSC767125), erdafitinib (NSC781556), ipatasertib (NSC767898), cabozantinib (NSC761068), nintedanib (NSC756659), abemaciclib (NSC768073), docetaxel (NSC628503), trametinib (NSC758246), and sapanisertib (NSC764658) were obtained from the National Cancer Institute (NCI) Developmental Therapeutics Program Chemical Repository. The FDA-approved anticancer drug set is available from the Developmental Therapeutics Program. […] The stock solutions were prepared in dimethyl sulfoxide (DMSO, Sigma-Aldrich, St. Louis, MO, cat. D2650) at 800-fold the tested concentration and stored at -70 degrees C prior to their use. All drugs and investigational agents were tested over a range starting from a high concentration at or near the clinical Cmax and decreasing in half-log increments. If the clinical Cmax for an agent had not been determined, the highest concentration tested was 10 microM.
Cell Culture. All cells were maintained in an incubator at 37 degrees C and 5% CO2 with 95% humidity. The PDC lines were cultured according to standard operating procedures established by the NCI PDMR (https://pdmr.cancer.gov/sops/default.htm). Briefly, all PDCs were thawed and cultured in Matrigel-coated flasks prepared with a working solution of 1X Ham's F-12 nutrient mix, without supplementation (Invitrogen, Waltham, MA, cat. 11765054), 100 U/mL penicillin-streptomycin (Invitrogen, cat. 15140122), and 2.5% Matrigel (Corning Inc., Corning, NY, cat. 354248) for the first three passages. All PDCs were cultured in complete DMEM/F-12 media containing advanced DMEM/F-12 (Invitrogen, cat. 12634028), 4.9% defined fetal bovine serum, heat inactivated (HyClone Laboratories Inc., Logan, UT, cat. SH30070.03HI), 389 ng/mL hydrocortisone (Sigma-Aldrich, cat. H4001), 9.7 ng/mL human EGF recombinant protein (Invitrogen, cat. PHG0313), 23.4 microg/mL adenine (Sigma-Aldrich, cat. A2786), 97.3 U/mL penicillin-streptomycin (Invitrogen, cat. 15140122), 1.9 mM L-glutamine (Invitrogen, cat. 25030081), and 9.7 microM Y-27632 dihydrochloride (Tocris Bioscience, Bristol, United Kingdom, cat. 1254). The PDCs were cultured in complete DMEM/F12 media without 9.7 microM Y-27632 dihydrochloride for at least two passages prior to the screen. The established cell line HOP-62 was cultured in RPMI 1640 medium, HEPES (Invitrogen, cat. 22400105) with 10% defined fetal bovine serum (HyClone Laboratories Inc., cat. SH30070.03) and 2 mM L-glutamine (Invitrogen, cat. 25030081). The pooled donor HUVEC were cultured in endothelial cell growth medium 2 (PromoCell, Heidelberg, Germany, cat. C-22011) and the hMSC were cultured in mesenchymal stem cell growth medium 2 (PromoCell, cat. C-28009). For all experiments, HUVEC and hMSC were used at passages </=5, while the malignant cell lines were used at passages </=15. […]

[1] = second compound 0.1 µM, first compound 0.0316 µM
[2] = second compound 0.1 µM, first compound 0.1 µM
[3] = second compound 0.1 µM, first compound 0.316 µM
[4] = second compound 0.1 µM, first compound 1 µM
[5] = second compound 0.316 µM, first compound 0.0316 µM
[6] = second compound 0.316 µM, first compound 0.1 µM
[7] = second compound 0.316 µM, first compound 0.316 µM
[8] = second compound 0.316 µM, first compound 1 µM
[9] = second compound 1 µM, first compound 0.0316 µM
[10] = second compound 1 µM, first compound 0.1 µM
[11] = second compound 1 µM, first compound 0.316 µM
[12] = second compound 1 µM, first compound 1 µM
[13] = second compound 3.16 µM, first compound 0.0316 µM
[14] = second compound 3.16 µM, first compound 0.1 µM
[15] = second compound 3.16 µM, first compound 0.316 µM
[16] = second compound 3.16 µM, first compound 1 µM
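Further: drug exposure lasted seven days after spheroids formed for three days.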
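Wherever viability, T/C is given: 100% = DMSO vehicle control viability.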

| SMILES | IC50 (second compound 0.1 µM) | IC50 (second compound 0.316 µM) | IC50 (second compound 1 µM) | IC50 (second compound 3.16 µM) | viability, T/C [1] | viability, T/C [2] | viability, T/C [3] | viability, T/C [4] | viability, T/C [5] | viability, T/C [6] | viability, T/C [7] | viability, T/C [8] | viability, T/C [9] | viability, T/C [10] | viability, T/C [11] | viability, T/C [12] | viability, T/C [13] | viability, T/C [14] | viability, T/C [15] | viability, T/C [16] | also measured |
| --- | --- | --- | --- | --- | --- | --- | --- | --- | --- | --- | --- | --- | --- | --- | --- | --- | --- | --- | --- | --- | --- |
| O=C(c1cc(Cc2n[nH]c(=O)c3ccccc23)ccc1F)N1CCN(C(=O)C2CC2)CC1 + C=CC(=O)N1CCN(c2nc(OCC3CCCN3C)nc3c2CCN(c2cccc4cccc(C)c24)C3)CC1CC#N | < 31.6 nM | < 31.6 nM | < 31.6 nM | < 31.6 nM | 21.3% | 22.5% | 23.6% | 24.1% | 25.6% | 26% | 24.1% | 24.4% | 27.9% | 28.3% | 26% | 25.6% | 30.1% | 29.2% | 33.1% | 30.4% | IC50 (second compound 0.0316 µM): < 31.6 nM; viability, T/C (second compound 0.0316 µM, first compound 0.0316 µM): 33.1%; viability, T/C (second compound 0.0316 µM, first compound 0.1 µM): 28.8%; viability, T/C (second compound 0.0316 µM, first compound 0.316 µM): 89.6%; viability, T/C (second compound 0.0316 µM, first compound 1 µM): 26%; viability, T/C (second compound 0.0316 µM, first compound 3.16 µM): 30%; viability, T/C (second compound 0.0316 µM, first compound 10 µM): 30.3%; viability, T/C (second compound 0.1 µM, first compound 3.16 µM): 27.9%; viability, T/C (second compound 0.1 µM, first compound 10 µM): 34.4%; viability, T/C (second compound 0.316 µM, first compound 3.16 µM): 23.6%; viability, T/C (second compound 0.316 µM, first compound 10 µM): 29.6%; viability, T/C (second compound 1 µM, first compound 3.16 µM): 25.8%; viability, T/C (second compound 1 µM, first compound 10 µM): 30.9%; viability, T/C (second compound 3.16 µM, first compound 3.16 µM): 35.4%; viability, T/C (second compound 3.16 µM, first compound 10 µM): 24.3% |
| CCNC(=O)CC1N=C(c2ccc(Cl)cc2)c2cc(OC)ccc2-n2c(C)nnc21 (stereo not drawn) | – | – | – | – | – | – | – | – | – | – | – | – | – | – | – | – | – | – | – | – | viability, T/C (compound 0.0316 µM): 115% [middle of 5 runs]; viability, T/C (compound 0.1 µM): 103% [middle of 5 runs]; viability, T/C (compound 0.316 µM): 80.5% [middle of 5 runs] |
| CCN1CCN(Cc2ccc(Nc3ncc(F)c(-c4cc(F)c5nc(C)n(C(C)C)c5c4)n3)nc2)CC1 + C=CC(=O)N1CCN(c2nc(=O)n(-c3c(C)ccnc3C(C)C)c3nc(-c4c(O)cccc4F)c(F)cc23)C(C)C1 | < 3.16 nM | < 3.16 nM | < 3.16 nM | < 3.16 nM | 17.2% | 18.7% | 19.8% | 24.2% | 16.3% | 16.4% | 18.6% | 25.7% | 16.8% | 17.3% | 22% | 23.7% | 18.6% | 15.9% | 20.4% | 33.8% | IC50 (second compound 10 µM): < 3.16 nM; viability, T/C (second compound 0.1 µM, first compound 0.00316 µM): 21.6%; viability, T/C (second compound 0.1 µM, first compound 0.01 µM): 21.6%; viability, T/C (second compound 0.316 µM, first compound 0.00316 µM): 21.3%; viability, T/C (second compound 0.316 µM, first compound 0.01 µM): 19.6%; viability, T/C (second compound 1 µM, first compound 0.00316 µM): 21.3%; viability, T/C (second compound 1 µM, first compound 0.01 µM): 22.3%; viability, T/C (second compound 3.16 µM, first compound 0.00316 µM): 20.4%; viability, T/C (second compound 3.16 µM, first compound 0.01 µM): 21.1%; viability, T/C (second compound 10 µM, first compound 0.00316 µM): 22.3%; viability, T/C (second compound 10 µM, first compound 0.01 µM): 20.6%; viability, T/C (second compound 10 µM, first compound 0.0316 µM): 22.3%; viability, T/C (second compound 10 µM, first compound 0.1 µM): 20.6%; viability, T/C (second compound 10 µM, first compound 0.316 µM): 27.9%; viability, T/C (second compound 10 µM, first compound 1 µM): 12.8% |
